This is an account of results in patent US4918064A, “Phenyl glycines for use in reducing neurotoxic injury” (G. D. Searle & Co., priority 1987, dated 1990).

Molecules are shown by their SMILES. Some results are limits rather than exact numbers.

For data set [1], the target named is NMDA receptor. Briefly: NMDA-specific L-[3H]glutamate receptor binding assay, synaptic plasma membranes. As to conditions: L-[3H]glutamate 12.5 nM, Triton X-100 treated SPM, 0-4° C., 10 min. The method, then: (§1) Synaptic plasma membranes (SPM) were prepared as previously described [Monahan, J. B. and Michel, J., "Identification and Characterization of an N-methyl-D-aspartate-specific L[^3 H]glutamate Recognition Site in Synaptic Plasma Membranes, J. Neurochem., 48, 1699-1708 (1987)]. The SPM were stored at a concentration of 10-15 mg/ml in 0.32M sucrose, 0.5 mM EDTA, 1 mM MgSO4, 5 mM Tris/SO4, pH 7.4, under liquid nitrogen. The identity and purity of the subcellular fractions were confirmed by both electron microscopy and marker enzymes. Protein concentrations were determined by using a modification of the method of Lowry [Ohnishi, S. T. and Barr, J. K., "A Simplified Method of Quantitating Proteins Using the Biuret and Phenol Reagents", Anal. Biochem., 86, 193-197 (1978)].
Prior to use in the NMDA-specific L-[^3 H]glutamate binding assay the SPM were thawed, diluted twenty fold with 50 mM Tris/acetate, pH 7.4 containing 0.04% (v/v) Triton X-100, incubated for 30 minutes at 37° C. and centrifuged as described above. The Triton X-100 treated membranes were washed with 50 mM Tris/acetate, pH 7.4 and centrifuged at 100,000 g for 15 minutes a total of four times.
(§2) The basic procedure for the receptor subclass binding assays was similar. This general method involved adding the radioligand (12.5 nM L-[^3 H]glutamate; 0.5 nM [^3 H]kainate or 10 nM [^3 H]AMPA) to the appropriate concentration of the test compound and initiating the assay by the addition of ice cold synaptic plasma membranes (0.2-0.45 mg). The binding assays were performed in 1.5 mL centrifuge tubes with the total volume adjusted to 1.0 mL. .Additions of test compounds were made in 50 mM Tris/acetate, pH 7.4 and incubations were carried out at 0°-4° C. The incubation time for the NMDA and the AMPA binding assays was 10 minutes, for the kainate binding assay 60 minutes and for the sodium-dependent glutamate binding assay 15 minutes. The AMPA binding assay contained 100 mM KSCN and the sodium-dependent glutamate binding assay contained 150 mM sodium acetate in addition to the previously described reagents.
(§3) To terminate the incubation, the samples were centrifuged for 15 minutes at 12,000 g and 4° C. in a Beckman Microfuge 12. The supernatant was aspirated and the pelleted membranes dissolved in Beckman BTS-450 tissue solubilizer for a minimum of 6 hours at room temperature. Beckman MP scintillation cocktail containing 7 mL/1 acetic acid was then added and the samples counted on a Beckman LS 5800 or 3801 liquid scintillation counter with automatic corrections for quenching and counting efficiency.
(§4) Nonspecific binding was defined as the residual binding in the presence of either excess L-glutamate (0.1-0.4 mM), kainate (0.01 mM), or NMDA (0.5 mM), and was 15-25% of the total binding in the NMDA binding assay, 19-27% in the AMPA binding assay, 20-30% in the kainate binding assay and 10-15% in the sodium-dependent binding assay. Radioligand binding to the synaptic plasma membranes was analyzed using Scatchard and Hill transformations and the Ki values of the compounds determined using logit-log transformations. Calculations and regression analysis were performed using templates developed for Lotus 1, 2, 3 as previously described [Pullan, L. M. "Automated Radioligand Receptor Binding Analysis with Templates for Lotus", Computer Appln. Biosci., 3 131 (1987)]. Binding results are reported in Table II for example compounds of the invention. […]

In data set [2] the target is KA (kainate) receptor. Briefly: [3H]kainate receptor binding assay, synaptic plasma membranes. As to conditions: [3H]kainate 0.5 nM, 0-4° C., 60 min. Here is the method:
as §1
(§5) The SPM were treated identically for the [^3 H]AMPA (QUIS), [^3 H]kainate and sodium-dependent L-[^3 H]-glumatate binding assays. The SPM were thawed at room temperature, diluted twenty-fold with 50 mM Tris/acetate, pH 7.4, incubated at 37° C. for 30 minutes, and centrifuged at 100,000 g for 15 minutes. The dilution, incubation, and centrifugation was repeated a total of three times.
as §2, §3, §4

The target in data set [3] is Quis (quisqualate) receptor. Briefly: [3H]AMPA (QUIS) receptor binding assay, synaptic plasma membranes. As to conditions: [3H]AMPA 10 nM, 100 mM KSCN, 0-4° C., 10 min. The method, then: as §1, §5, §2, §3, §4
The test system of data set [4] is CD-1 mouse. As to the kind of experiment: In Vivo 3-MPA-Induced Convulsions (tonic hindlimb extension). Here is the method:
In the CD-1 mouse, i.p. injection of 3-MPA produces clonic seizures, tonic hindlimb extension and death. Seizures begin within 2-3 minutes after injection. The dose-response for induction of tonus by 3-MPA is unusual. The incidence of tonus increases rapidly from 35 to 50 mg/kg and remains constant at a less than maximal level over a broad dose range. 3-MPA doses from 50 to 150 mg/kg produce tonus in approximately 75% of the treated mice. The incidence of death over this dose range is variable and less than maximal.
In order to test for antagonism of 3-MPA-induced tonus, the lowest dose of 3-MPA that produced tonus consistently in 75% of the animals (50 mg/kg i.p.) was chosen. Test compounds were administered subcutaneously 30-40 minutes prior to i.p. administration of 3-MPA. Immediately after 3-MPA administration, each mouse was placed in a small cage made of steel rods. The mice were then observed for the presence or absence of tonic hindlimb extension. Reduction (from 75%) in the incidence of tonic hindlimb extension was considered protection from 3-MPA-induced convulsions. The dose of the test compound varied using groups of ten mice per dose until dose response curves are constructed, and ED50 's are calculated.

The test system of data set [5] is chick embryo retina. As to conditions: agonist alone, pilot experiments, 30 min; cited from earlier work.

One may read the Ki as a measure of affinity in units of concentration, obtained from inhibition or displacement. A low value points to tighter binding. On to `NC(CCCCCP(=O)(O)O)C(=O)O` (racemic) [D,L-AP7, D,L-2-amino-7-phosphonoheptanoic acid, reference compound], for which the inhibition constant (Ki) is 5.4 µM in data set [1] and over 300 µM in data set [3]. Moreover, the “Receptor binding, KA (Ki)” value in data set [2] is over 300 µM.
`N[C@H](CCCCCP(=O)(O)O)C(=O)O` [D-AP7, reference compound]: the Ki in data set [1] was 4 µM; in data set [3] it was over 300 µM. Besides, the “Receptor binding, KA (Ki)” value in data set [2] is over 300 µM.
For the compound `O=C(O)CCS` [Example 3-MPA], the “mice with tonus produced by 3-MPA” value in data set [4] (3-MPA 50 to 150 mg/kg i.p.) is given as “approximately 75%”. Moreover, in data set [4] (3-MPA i.p.), the “time after injection at which seizures begin” value fell in the range of 2 to 3 min. Also, in data set [4] (i.p.), the “lowest dose of 3-MPA that produced tonus consistently in 75% of the animals” value was found to be 50 mg/kg.
Consider `C=C(C)[C@H]1CN[C@H](C(=O)O)[C@H]1CC(=O)O` [KA, Kainate], for which the “lowest concentration required to consistently obtain fully developed retinal lesions” value in data set [5] was 25 µM.
As for `CCOP(=O)(O)Cc1ccc(C(N)C(=O)O)cc1` (stereo not shown) [VII, 4-(Ethylphosphonomethyl)phenylglycine], the values for the Ki in data set [1] and in data set [3] were 70 µM and over 300 µM, respectively. Besides, the “Receptor binding, KA (Ki)” value in data set [2] was over 300 µM.
In the case of `Cc1cc(C(N)C(=O)O)c(C)cc1CP(=O)(O)O.Cl` (stereo not shown) [X, 2,5-dimethyl-4-(phosphonomethyl)phenylglycine hydrochloride], the Ki is 21.3 µM in data set [1] and over 300 µM in data set [3]. Also, the “Receptor binding, KA (Ki)” value in data set [2] is over 300 µM.
